Assays:
CCRF-CEM [1] = assay: (§1) In vitro inhibitory activity against HIV infected T4 lymphocytes (CEM cell line); format: functional, cell-based, Homo sapiens
[2] = Therapeutic index (IC50/EC50) was determined
CCRF-CEM [3] = assay: as §1; format: functional, cell-based; conditions: Homo sapiens
CCRF-CEM [4] = assay: Tested for in vitro anti HIV activity against T4 lymphocytes (CEM cell lines) and effective concentration was reported; format: functional, cell-based; conditions: Homo sapiens

Compound	IC50 (CCRF-CEM [1]; Homo sapiens, CCRF-CEM) [µM]	selectivity ratio [2]	EC50 (CCRF-CEM [3]) [µM]	IC50 (CCRF-CEM [1]; ccrf-cem) [µM]	EC50 (CCRF-CEM [4]) [µM]
COc1nc(N[C@H]2OC[C@@H](O)[C@H](O)[C@H]2O)c(NC2O[C@@H](CO)[C@@H](O)[C@@H]2O)c(=O)n1C (some centres undefined)	> 580				
COc1nc(N)c(NC2O[C@H](CO)[C@@H](O)[C@H]2O)c(=O)n1C (some centres undefined)	> 830	> 13	64		
COc1nc2nc(C(O)C(O)CO)cnc2c(=O)n1C (stereo in doubt; 11)				> 220	
COc1nc(N)c(NC2O[C@H](CO)[C@H](O)[C@H]2O)c(=O)n1C (some centres undefined)	220	> 1.6			140
COc1nc2nc(C(O)C(O)CO)cnc2c(=O)n1C (stereo in doubt; 10)				> 890	

Source: ChEMBL document CHEMBL1127210, “Synthesis of 5-glycosylamino pyrimidines. A new class of compounds with potential anti-aids activity” (Bioorg Med Chem Lett, 1993)
